Laboratory results as given in patent US10130655B2, “Composition and method for pre-surgical skin disinfection” (GOJO INDUSTRIES, INC., priority 2006, dated 2018).

Test: Irritation potential, independent laboratory testing (Total Cumulative Irritation, Berger & Bowman)
Conditions: in vivo
Text: Independent laboratory testing compared irritation potential of commercial products, controls, and a disinfecting composition according to the present invention.

CCCCCCCCCCCCOS(=O)(=O)[O-].[Na+] [Sodium Lauryl Sulfate]
Berger & Bowman Classification: Possibly Mild in use | CIT Score (Total Cumulative Irritation): 1321.0
